Columns and labels:
[1] = tested on: AML cells / panel of leukemic cell lines; test: Leukemic cell proliferation, viable cell count by trypan blue exclusion; format: cell-based, human; details: 48 hours
Description: Leukemic cells were seeded at 1×10^5 cells/ml in X-vivo medium (Bio-Whittaker, MA) with 5% FBS and CA4P or pre-incubated with the PARP-inhibitor DPQ or caspase-inhibitors Z-VAD-fmk and Q-VD-OPh (R&D, Minneapolis, Minn.). A panel of leukemic cells was incubated with CA4P at the different concentrations indicated in FIG. 1, and viable cells were counted after 48 hours using trypan blue exclusion. Results of four experiments in duplicate are expressed as the ratio of the percentage of viable cells/control±SEM (*p<0.05 as compared with CA4P-untreated cells; n=4). After incubation for 48 hours, cells were counted using trypan-blue exclusion. CA4P at concentrations as low as 1 nM initiated cell death of non-adherent, anchorage-independent AML cells in vitro, with the IC50 ranging from 2.5 to 5 nM (FIG. 1). The majority of the AML cell lines tested was sensitive to CA4P at a concentration of 2.5 nM or less. All leukemic cell lines, as well as a recently established primary leukemic cell line (R81) 16 were sensitive at low doses of CA4P (<10 nM).

leukemic cells = test: Release of mitochondrial membrane proteins, immunofluorescence; format: cell-based, human; details: after CA4P exposure, data not shown
Excerpt: Mitochondrial damage may result in the release of pro-apoptotic mitochondrial membrane proteins (MMPs) such as cytochrome c, SMAC/diablo and ARTS. […] Cytochrome c and ARTS were detected using mAb clone 6H2.B4 (1:100, BD Pharmingen) and polyclonal-antibody A3720 (1:50, Sigma), both followed by AlexaFluor 488 conjugated secondary antibody (1:200, Molecular Probes) and analyzed by confocal microscopy.

[2] = Bone marrow toxicity, serial complete blood counts; format: in vivo, CD1 mice; details: 25 mg/kg subcutaneously every other day for 4 weeks
Description: Eight week-old sex matched CD1 mice (Jackson Laboratory, Bar Harbor, Me.) were treated with CA4P at 25 mg/kg subcutaneously every other day for 4 weeks.

HL60 subcutaneous tumors = test: Subcutaneous in vivo leukemia model; parameters: species or system NOD-SCID mice
Description: HL60 (5×10^6 cells) were injected subcutaneously into the dorsa of seven-week-old NOD-SCID mice (Jackson Laboratory). When mice bore a tumor (i.e. after 12 days), 4 experimental groups were randomized, each with 9 animals. Daily treatment was initiated at this time: the CA4P groups were subjected to intraperitoneal injection of CA4P at 10, 25 and 50 mg/kg body weight, and the control group received PBS. After a 3-day treatment, animals were sacrificed, tumors removed and then subjected to immunohistochemical analysis. Tumors were embedded in paraffin, serially sectioned, and stained with hematoxylin and eosin for histological analysis. Cell death was assessed by TUNEL assay. Cell death within paraffin-embedded tumor sections was detected by TUNEL reaction (Roche Diagnostics). The detection of cell death in this assay relies on the detection of free 3′OH DNA ends.
Tumors from mice treated with CA4P for 3 days were softer and hemorrhagic (particularly when treated with 50 mg/kg) than those observed in the control group. […] The control tumor sections were negative for TUNEL reaction. […] The extent of intra-tumor vascularization within the different groups was assessed by immunostaining for the endothelial-specific antigen MECA-32. […] The neo-vessel density was evaluated by microscopic counting of 5 fields at 10× magnification, and presented as mean number of microvessels per microscopic field±SEM (*p<0.05 as compared with the PBS control group; n=5). The decrease in intra-tumor vascularization induced by CA4P was dose dependent (54±13%, 68±6% and 90±3% decrease for 10, 25 and 50 mg/kg, respectively).

[3] = tested on: human umbilical cord derived (CB) CD34+ cells; test: Cord blood CD34+ cell viability and colony formation; format: cell-based
Description: Cord blood CD34+ cells were isolated by magnetic procedure and cultured with recombinant human SCF (50 ng/ml, Peprotech) and CA4P for 48 h. Annexin/PI staining was then performed. CD34+ cells were also cultured in methylcellulose supplemented with cytokines and CA4P (Stem cell technologies, Vancouver, Canada) for 14 days. Colonies were scored. […] As such, CA4P used as single agent can selectively target circulating and or tissue-resident hematopoietic neoplasms without incurring significant hematological toxicity.

GFP-labeled U937 cells = test: Systemic in vivo leukemia model, GFP+U937; parameters: species or system NOD-SCID mice; details: after 30 days, data not shown
Description: NOD-SCID mice were intravenously inoculated with 1×10^7 GFP+HL60 cells. The HL60 cells were labeled with green fluorescent protein (GFP) by a lentiviral construct, and inoculated systemically through tail vein injection. Three days after inoculation, mice were divided into 2 groups of five mice. One group was treated every other day with PBS (control) and the second group received 25 mg/kg CA4P every other day. Each experiment was done three times. At day 30 after the start of the experiment, two mice from each group were killed, and their organs (spleen, liver and lung), peripheral blood and marrow of surgically removed femurs were collected, and analyzed for the presence of human leukemic cells by flow cytometry. Single cell suspension was stained using phytoerythrin-labeled anti-human CD45 mAb (Pharmingen), and the percentage of double positive human CD45-PE and GFP cells was determined flow cytometer. The extent of GFP+HL60 cell infiltration was assessed by fluorescence microscopy. In a second set of experiments, GFP+U937 cells were used instead of HL60 cells, and the animals sacrificed after 30 days. […]

## COc1ccc(/C=C\c2cc(OC)c(OC)c(OC)c2)cc1OP(=O)(O)O [CA4P, combretastatin A-4 phosphate]
[1]
  concentration at which all leukemic cell lines and primary line R81 were sensitive: < 10 nM
  concentration at which the majority of the AML cell lines tested was sensitive: ≤ 2.5 nM
[1]; in vitro
  lowest concentration that initiated cell death of AML cells: 1 nM
[1]; Homo sapiens, trypan blue exclusion, range over cell lines, read-out: IC50, cell death of non-adherent, anchorage-independent AML cells
  IC50: 2.5 to 5 nM
Leukemic cells
  mitochondrial membrane protein release: release of cytochrome c and ARTS from mitochondria
[2]
  WBC and absolute neutrophil count: slight decrease
HL60 subcutaneous tumors; 10 mg/kg i.p. daily, 3 days
  decrease in intra-tumor vascularization (MECA-32 microvessel density): 54±13%
HL60 subcutaneous tumors; 25 mg/kg i.p. daily, 3 days
  decrease in intra-tumor vascularization (MECA-32 microvessel density): 68±6%
HL60 subcutaneous tumors; 50 mg/kg i.p. daily, 3 days
  decrease in intra-tumor vascularization (MECA-32 microvessel density): 90±3%
HL60 subcutaneous tumors; 10, 25 and 50 mg/kg, 3 days
  tumor histology: largely necrotic
HL60 subcutaneous tumors; low to high doses, data not shown
  cell death in tumor sections (TUNEL): most of the leukemic cells were non-viable
[3]; 48 h with SCF 50 ng/ml
  CD34+ cell viability (Annexin/PI staining): only minimal effect on cell viability
[3]; methylcellulose, 14 days
  colony-forming potential of CD34+ cells: did not impair colony-forming potential
GFP-labeled U937 cells
  GFP-positive U937 leukemic cells in the bone marrow: less than 0.05%
  GFP-positive U937 leukemic cells in the liver: less than 0.05%

— patent US20090264382A1, “Methods for Treating Hematopoietic Neoplasms” (priority 2007, published 2009)
